In patent publication US12612410B2 (CHILDREN'S HOSPITAL MEDICAL CENTER, priority 2020, dated 2026):

Tests used:
FLT3 = molecular target: T1, FLT3 (Homo sapiens, UniProt P36888); test: RBC HotSpot Kinase Assay, FLT3; format: biochemical; set-up: purchased Reaction Biology (RBC), HotSpot kinase assay; conditions: isolated kinase, 33P-ATP
T1 sequence (P36888 27-993): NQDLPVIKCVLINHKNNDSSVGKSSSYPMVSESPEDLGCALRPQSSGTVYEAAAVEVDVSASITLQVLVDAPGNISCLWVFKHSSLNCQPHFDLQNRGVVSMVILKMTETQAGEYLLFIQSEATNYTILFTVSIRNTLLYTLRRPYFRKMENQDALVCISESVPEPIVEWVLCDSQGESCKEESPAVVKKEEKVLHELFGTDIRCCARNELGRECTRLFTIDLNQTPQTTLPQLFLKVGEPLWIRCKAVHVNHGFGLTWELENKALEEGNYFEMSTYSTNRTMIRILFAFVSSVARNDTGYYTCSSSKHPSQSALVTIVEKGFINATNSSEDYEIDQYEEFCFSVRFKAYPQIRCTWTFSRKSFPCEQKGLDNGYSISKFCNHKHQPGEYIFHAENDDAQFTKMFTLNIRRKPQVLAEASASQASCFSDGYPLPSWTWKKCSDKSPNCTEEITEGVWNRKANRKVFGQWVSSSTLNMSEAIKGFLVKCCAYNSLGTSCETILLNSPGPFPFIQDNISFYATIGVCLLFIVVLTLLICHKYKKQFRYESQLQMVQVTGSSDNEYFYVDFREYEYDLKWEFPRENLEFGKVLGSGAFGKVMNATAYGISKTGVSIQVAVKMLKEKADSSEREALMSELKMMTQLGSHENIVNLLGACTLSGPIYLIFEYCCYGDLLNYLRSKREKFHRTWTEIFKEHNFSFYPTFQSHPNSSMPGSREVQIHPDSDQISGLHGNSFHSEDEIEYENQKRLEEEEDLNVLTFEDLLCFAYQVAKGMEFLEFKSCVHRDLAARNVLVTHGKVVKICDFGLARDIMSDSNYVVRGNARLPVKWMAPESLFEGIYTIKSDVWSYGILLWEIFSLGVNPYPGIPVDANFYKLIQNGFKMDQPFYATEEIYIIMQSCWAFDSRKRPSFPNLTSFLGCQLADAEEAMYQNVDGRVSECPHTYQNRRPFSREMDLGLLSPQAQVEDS
Summary of the method: (§1)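 Read-out was P81 filter binding of 33P incorporated into substrate by isolated kinase during a 2 h room-temperature reaction. Compound was preincubated with enzyme for 20 min at room temperature; buffer was Hepes pH 7.5 with Mg2+, EGTA, Brij35 and 1% DMSO.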

IRAK1 = molecular target: T2, IRAK1 (Homo sapiens, UniProt P51617); test: RBC HotSpot Kinase Assay, IRAK1; format: biochemical; conditions: isolated kinase, 33P-ATP
T2 construct: purchased Reaction Biology (RBC), HotSpot kinase assay
T2 sequence (P51617 whole entry): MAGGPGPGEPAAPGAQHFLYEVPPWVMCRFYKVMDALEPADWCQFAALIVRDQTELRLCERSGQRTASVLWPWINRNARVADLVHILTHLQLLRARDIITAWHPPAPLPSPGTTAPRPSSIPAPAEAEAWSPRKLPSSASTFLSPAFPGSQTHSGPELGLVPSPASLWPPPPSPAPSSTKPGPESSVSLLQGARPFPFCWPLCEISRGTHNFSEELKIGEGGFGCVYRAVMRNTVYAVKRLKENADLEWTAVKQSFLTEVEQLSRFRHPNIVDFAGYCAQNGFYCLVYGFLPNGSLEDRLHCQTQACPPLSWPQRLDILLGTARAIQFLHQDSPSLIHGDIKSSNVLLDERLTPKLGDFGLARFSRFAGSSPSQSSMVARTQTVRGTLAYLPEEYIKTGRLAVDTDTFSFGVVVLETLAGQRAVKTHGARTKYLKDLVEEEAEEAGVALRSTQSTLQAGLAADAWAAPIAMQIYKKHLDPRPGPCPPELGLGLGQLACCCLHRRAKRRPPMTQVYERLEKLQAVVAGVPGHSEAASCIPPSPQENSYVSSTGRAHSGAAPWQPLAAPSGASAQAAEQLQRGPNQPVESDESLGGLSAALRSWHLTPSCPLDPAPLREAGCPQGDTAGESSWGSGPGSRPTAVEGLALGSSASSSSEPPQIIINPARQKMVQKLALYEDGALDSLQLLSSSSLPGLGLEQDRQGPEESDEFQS
Summary of the method: as §1

MOLM14 D835Y cells = test: MOLM14 D835Y cell viability assay (Cell Titer Glo); format: cell-based; conditions: Homo sapiens, MOLM-14, 48 h
Summary of the method: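 MOLM14 cells carrying FLT3 D835Y or F691L were seeded at 1000 cells/well in RPMI-1640 with 20% FBS and dosed at 22 concentrations, 1:2 dilutions from 10 μM. Viability after 48 h by Cell Titer Glo luminescence; 2.3 μM bortezomib as cytotoxic control.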

IC50 (FLT3) [nM] | IC50 (IRAK1) [nM] | IC50 (MOLM14 D835Y cells) [nM] | SMILES
< 0.5 | 110 | 19 | O=C1CCCN1c1cn2c(-c3cccc(N[C@H]4CNCC[C@@H]4F)n3)cnc2cn1 [Compound 119, 1-(3-(6-(((3S,4S)-4-fluoropiperidin-3-yl)amino)pyridin-2-yl)imidazo[1,2-a]pyrazin-6-yl)pyrrolidin-2-one]
< 0.5 | 207 | 23 | O=C1CCCN1c1cn2c(-c3cccc(N[C@H]4CNC[C@@H]4F)n3)cnc2cn1 [Compound 121, 1-(3-(6-(((3S,4S)-4-fluoropyrrolidin-3-yl)amino)pyridin-2-yl)imidazo[1,2-a]pyrazin-6-yl)pyrrolidin-2-one]
< 0.5 | 51 | 163 | CC(C)(C)c1cn2c(-c3nc(N[C@H]4CNC[C@@H]4F)c(F)cc3F)cnc2cn1 [Compound 125]
< 0.5 | 80 | 21 | CC(C)(C)c1cn2c(-c3nc(N[C@@H]4CCCNC4)c(F)cc3F)cnc2cn1 [Compound 126, (R)-6-(6-(tert-butyl)imidazo[1,2-a]pyrazin-3-yl)-3,5-difluoro-N-(piperidin-3-yl)pyridin-2-amine]
< 0.5 | 60 | 44 | CC(C)(C)c1cn2c(-c3nc(N[C@H]4CNCC[C@@H]4F)c(F)cc3F)cnc2cn1 [Compound 127, 6-(6-(tert-butyl)imidazo[1,2-a]pyrazin-3-yl)-3,5-difluoro-N-((3S,4S)-4-fluoropiperidin-3-yl)pyridin-2-amine]
< 0.5 | 97 | 33 | CC(C)(C)c1cn2c(-c3cccc(N[C@@H]4CCCNC4)n3)cnc2cn1 [Compound 129, (R)-6-(6-(tert-butyl)imidazo[1,2-a]pyrazin-3-yl)-N-(piperidin-3-yl)pyridin-2-amine]
< 0.5 | 49 | 26 | CC(C)(C)c1cn2c(-c3cccc(N[C@H]4CNCC[C@@H]4F)n3)cnc2cn1 [Compound 130, 6-(6-(tert-butyl)imidazo[1,2-a]pyrazin-3-yl)-N-((3S,4S)-4-fluoropiperidin-3-yl)pyridin-2-amine]
